Laboratory results reported in BindingDB's records for doi:10.1021/acs.jmedchem.1c00256 (University of Strasbourg, 2021).

Columns and labels:
[1] = target: Prolactin-releasing peptide receptor PRLHR (Homo sapiens) (UniProt P49683); experiment: Displacement of [3H]-PrRP-20 from human PrRP receptor expressed in CHO cells by TopCount scintillation counting method
KiSS-1 receptor = KiSS-1 receptor (Homo sapiens, UniProt Q969F8); experiment: Displacement of [125I]-Kp-10 from human Kiss1 receptor by TopCount scintillation counting method
KiSS-1 receptor, sequence (Q969F8 whole entry): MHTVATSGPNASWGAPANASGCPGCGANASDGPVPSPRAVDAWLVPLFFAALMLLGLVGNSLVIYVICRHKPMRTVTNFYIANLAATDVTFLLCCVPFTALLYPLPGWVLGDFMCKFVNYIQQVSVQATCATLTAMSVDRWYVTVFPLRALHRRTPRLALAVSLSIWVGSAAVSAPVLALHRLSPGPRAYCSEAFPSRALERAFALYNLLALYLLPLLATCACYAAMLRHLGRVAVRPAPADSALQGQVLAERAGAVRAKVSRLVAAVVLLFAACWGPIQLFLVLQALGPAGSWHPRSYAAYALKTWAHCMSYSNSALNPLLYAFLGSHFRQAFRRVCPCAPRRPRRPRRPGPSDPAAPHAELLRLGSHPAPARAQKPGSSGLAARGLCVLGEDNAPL

Prolactin-releasing peptide receptor PRLHR (Homo sapiens), sequence (P49683 whole entry, looked up): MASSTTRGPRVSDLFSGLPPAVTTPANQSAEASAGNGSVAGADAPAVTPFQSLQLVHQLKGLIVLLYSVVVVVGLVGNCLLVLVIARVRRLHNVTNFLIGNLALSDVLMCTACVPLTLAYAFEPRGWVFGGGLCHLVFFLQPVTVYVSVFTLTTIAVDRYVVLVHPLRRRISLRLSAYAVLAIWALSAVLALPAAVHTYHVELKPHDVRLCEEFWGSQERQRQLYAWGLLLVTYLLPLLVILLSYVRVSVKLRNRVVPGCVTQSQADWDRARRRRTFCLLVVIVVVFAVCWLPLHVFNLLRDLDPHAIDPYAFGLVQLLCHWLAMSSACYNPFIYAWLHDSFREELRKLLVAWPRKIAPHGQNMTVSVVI

N=C(N)NCCC[C@@H](NC(=O)C=C(c1ccccc1)c1ccccc1)C(=O)N[C@H](Cc1ccccc1)C(N)=O
Ki [1]: > 50000 nM

CC(C)C[C@H](NC(=O)CNC(=O)[C@H](Cc1ccccc1)NC(=O)[C@H](CO)NC(=O)[C@H](CC(N)=O)NC(=O)[C@H](Cc1c[nH]c2ccccc12)NC(=O)[C@H](CC(N)=O)NC(=O)[C@@H](N)Cc1ccc(O)cc1)C(=O)N[C@@H](CCCNC(=N)N)C(=O)N[C@@H](Cc1ccccc1)C(N)=O [Kisspeptin-10]
Ki (KiSS-1 receptor): 0.062 nM

H-TPDINPAWYASRGIRPVGRF-NH2
Ki [1]: 2.1 nM
